In patent publication US12539292B2, “BRM targeting compounds and associated methods of use” (Arvinas Operations, Inc., priority 2018, dated 2026):
Where two headings read alike, the source gives them in different places.

Target: T1, BRM (Homo sapiens, UniProt P51531)
T1 construct: In-Cell Western Screen of BRM Degradation in SW1573 Cells; endogenous in cells; host or cells: SW1573
Assay: In-cell Western screen of BRM degradation in SW1573 cells (Dmax and DC50)
Format: cell-based
Outline: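 Overnight compound treatment (18-20 h, final DMSO 0.1%) of SW1573 cells in DMEM with 10% FBS precedes fixation and in-cell Western staining with 800/680 nm dye-labelled secondaries. Plate images give DC50 and maximal degradation.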

[1] = SW1573, % degraded, when tested at the top concentration of between 0.3 and 10 μM, read-out: BRM Dmax (%)
[2] = target protein degradation, read-out: BRM DC50

T1 sequence (P51531 whole entry): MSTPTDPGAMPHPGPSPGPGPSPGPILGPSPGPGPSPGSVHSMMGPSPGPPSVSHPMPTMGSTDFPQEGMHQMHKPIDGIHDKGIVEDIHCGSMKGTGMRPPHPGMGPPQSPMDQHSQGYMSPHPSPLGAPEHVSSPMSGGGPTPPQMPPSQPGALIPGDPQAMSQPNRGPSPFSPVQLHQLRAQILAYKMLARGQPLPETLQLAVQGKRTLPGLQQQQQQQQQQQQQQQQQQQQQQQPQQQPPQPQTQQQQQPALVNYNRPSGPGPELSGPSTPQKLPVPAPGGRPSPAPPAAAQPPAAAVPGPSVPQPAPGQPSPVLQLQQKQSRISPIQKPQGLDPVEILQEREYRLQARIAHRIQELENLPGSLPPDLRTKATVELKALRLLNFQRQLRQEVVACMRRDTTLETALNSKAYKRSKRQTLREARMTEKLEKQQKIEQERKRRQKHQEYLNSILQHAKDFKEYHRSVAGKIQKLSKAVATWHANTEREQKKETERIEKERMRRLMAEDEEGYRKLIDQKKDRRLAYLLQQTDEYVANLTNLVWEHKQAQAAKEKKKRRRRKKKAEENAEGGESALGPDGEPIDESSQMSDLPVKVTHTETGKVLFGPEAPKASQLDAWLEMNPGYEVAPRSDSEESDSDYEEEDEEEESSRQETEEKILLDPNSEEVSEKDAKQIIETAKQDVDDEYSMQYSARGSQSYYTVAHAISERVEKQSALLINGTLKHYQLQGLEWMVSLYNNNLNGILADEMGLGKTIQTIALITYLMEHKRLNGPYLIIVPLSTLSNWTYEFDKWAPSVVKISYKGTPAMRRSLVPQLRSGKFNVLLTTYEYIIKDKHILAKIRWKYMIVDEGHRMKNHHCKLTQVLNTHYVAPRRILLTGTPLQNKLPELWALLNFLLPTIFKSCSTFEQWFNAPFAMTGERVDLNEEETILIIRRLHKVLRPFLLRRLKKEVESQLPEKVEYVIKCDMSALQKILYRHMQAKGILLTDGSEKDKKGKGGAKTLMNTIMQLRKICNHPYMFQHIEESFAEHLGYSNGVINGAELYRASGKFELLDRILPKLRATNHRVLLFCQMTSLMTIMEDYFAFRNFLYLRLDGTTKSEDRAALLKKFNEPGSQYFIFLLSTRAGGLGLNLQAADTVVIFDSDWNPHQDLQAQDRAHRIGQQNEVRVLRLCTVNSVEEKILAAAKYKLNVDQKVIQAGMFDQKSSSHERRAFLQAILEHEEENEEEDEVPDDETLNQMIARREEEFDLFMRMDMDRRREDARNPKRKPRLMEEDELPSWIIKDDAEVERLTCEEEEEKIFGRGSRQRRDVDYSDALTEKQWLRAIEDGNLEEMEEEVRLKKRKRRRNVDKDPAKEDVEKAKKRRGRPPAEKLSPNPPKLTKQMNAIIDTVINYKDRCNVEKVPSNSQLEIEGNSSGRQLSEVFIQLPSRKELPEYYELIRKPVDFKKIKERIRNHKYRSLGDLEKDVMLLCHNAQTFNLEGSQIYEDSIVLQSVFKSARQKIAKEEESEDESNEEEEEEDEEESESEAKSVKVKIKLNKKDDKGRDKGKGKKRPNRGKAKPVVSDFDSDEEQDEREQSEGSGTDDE

Row | DC50 (BRM degradation, SW1573 cells, read-out: DC50) | Dmax (BRM degradation, SW1573 cells, tested at the top concentration of between 0.3 and 10 μM, read-out: Dmax (%) (% degraded)) | Compound | Dmax [1] | DC50 [2]
1 | < 2.5 nM | > 75% | Cc1ncsc1-c1ccc([C@H](C)NC(=O)[C@@H]2C[C@@H](O)CN2C(=O)[C@@H](c2cc(OCCN3CCN(CCC#CCn4cc(-c5cc(-c6ccccc6O)nnc5N)cn4)CC3)no2)C(C)C)cn1 [compound 352, (2S,4R)-1-((R)-2-(3-(2-(4-(5-(4-(3-amino-6-(2-hydroxyphenyl)pyridazin-4-yl)-1H-pyrazol-1-yl)pent-3-yn-1-yl)piperazin-1-yl)ethoxy)isoxazol-5-yl)-3-methylbutanoyl)-4-hydroxy-N-((S)-1-(6-(4-methylthiazol-5-yl)pyridin-3-yl)ethyl)pyrrolidine-2-carboxamide] | – | –
2 | – | – | Cc1ncsc1-c1ccc([C@H](C)NC(=O)[C@@H]2C[C@@H](O)CN2C(=O)[C@H](c2cc(OCCN3CCC(OC4CN(c5cc(N6C7CCC6CN(c6cc(-c8ccccc8O)nnc6N)C7)ccn5)C4)CC3)no2)C(C)C)cc1 [compound 354, (2S,4R)-1-((2S)-2-(3-(2-(4-((1-(4-(3-(3-amino-6-(2-hydroxyphenyl)pyridazin-4-yl)-3,8-diazabicyclo[3.2.1]octan-8-yl)pyridin-2-yl)azetidin-3-yl)oxy)piperidin-1-yl)ethoxy)isoxazol-5-yl)-3-methylbutanoyl)-4-hydroxy-N-((S)-1-(4-(4-methylthiazol-5-yl)phenyl)ethyl)pyrrolidine-2-carboxamide] | > 75% | 2.5 to 10 nM
3 | – | – | Cc1ncsc1-c1ccc([C@H](C)NC(=O)[C@@H]2C[C@@H](O)CN2C(=O)[C@@H](c2cc(OCCN3CCC(OC4CN(c5cc(N6C7CCC6CN(c6cc(-c8ccccc8O)nnc6N)C7)ccn5)C4)CC3)no2)C(C)C)cc1 [compound 355, (2S,4R)-1-((2R)-2-(3-(2-(4-((1-(4-(3-(3-amino-6-(2-hydroxyphenyl)pyridazin-4-yl)-3,8-diazabicyclo[3.2.1]octan-8-yl)pyridin-2-yl)azetidin-3-yl)oxy)piperidin-1-yl)ethoxy)isoxazol-5-yl)-3-methylbutanoyl)-4-hydroxy-N-((S)-1-(4-(4-methylthiazol-5-yl)phenyl)ethyl)pyrrolidine-2-carboxamide] | > 75% | < 2.5 nM
4 | – | – | Cc1ncsc1-c1ccc([C@H](C)NC(=O)[C@@H]2C[C@@H](O)CN2C(=O)[C@H](c2cc(OCCOCCOc3cc(N4C5CCC4CN(c4cc(-c6ccccc6O)nnc4N)C5)ccn3)no2)C(C)C)cc1 [compound 356, (2S,4R)-1-((2S)-2-(3-(2-(2-((4-(3-(3-amino-6-(2-hydroxyphenyl)pyridazin-4-yl)-3,8-diazabicyclo[3.2.1]octan-8-yl)pyridin-2-yl)oxy)ethoxy)ethoxy)isoxazol-5-yl)-3-methylbutanoyl)-4-hydroxy-N-((S)-1-(4-(4-methylthiazol-5-yl)phenyl)ethyl)pyrrolidine-2-carboxamide] | – | > 30 nM
5 | – | – | Cc1ncsc1-c1ccc([C@H](C)NC(=O)[C@@H]2C[C@@H](O)CN2C(=O)[C@@H](c2cc(OCCOCCOc3cc(N4C5CCC4CN(c4cc(-c6ccccc6O)nnc4N)C5)ccn3)no2)C(C)C)cc1 [compound 357, (2S,4R)-1-((2R)-2-(3-(2-(2-((4-(3-(3-amino-6-(2-hydroxyphenyl)pyridazin-4-yl)-3,8-diazabicyclo[3.2.1]octan-8-yl)pyridin-2-yl)oxy)ethoxy)ethoxy)isoxazol-5-yl)-3-methylbutanoyl)-4-hydroxy-N-((S)-1-(4-(4-methylthiazol-5-yl)phenyl)ethyl)pyrrolidine-2-carboxamide] | > 75% | < 2.5 nM
6 | – | – | Cc1ncsc1-c1ccc([C@H](C)NC(=O)[C@@H]2C[C@@H](O)CN2C(=O)[C@H](c2cc(OCCN3CCC(O[C@H]4C[C@H](OCCN5CCOC6(CCN(c7cc(-c8ccccc8O)nnc7N)CC6)C5)C4)CC3)no2)C(C)C)cc1 [compound 358, (2S,4R)-1-((S)-2-(3-(2-(4-((1r,3S)-3-(2-(9-(3-amino-6-(2-hydroxyphenyl)pyridazin-4-yl)-1-oxa-4,9-diazaspiro[5.5]undecan-4-yl)ethoxy)cyclobutoxy)piperidin-1-yl)ethoxy)isoxazol-5-yl)-3-methylbutanoyl)-4-hydroxy-N-((S)-1-(4-(4-methylthiazol-5-yl)phenyl)ethyl)pyrrolidine-2-carboxamide] | – | > 30 nM
7 | – | – | Cc1ncsc1-c1ccc([C@H](C)NC(=O)[C@@H]2C[C@@H](O)CN2C(=O)[C@@H](c2cc(OCCN3CCC(O[C@H]4C[C@H](OCCN5CCOC6(CCN(c7cc(-c8ccccc8O)nnc7N)CC6)C5)C4)CC3)no2)C(C)C)cc1 [compound 359, (2S,4R)-1-((R)-2-(3-(2-(4-((1r,3R)-3-(2-(9-(3-amino-6-(2-hydroxyphenyl)pyridazin-4-yl)-1-oxa-4,9-diazaspiro[5.5]undecan-4-yl)ethoxy)cyclobutoxy)piperidin-1-yl)cthoxy)isoxazol-5-yl)-3-methylbutanoyl)-4-hydroxy-N-((S)-1-(4-(4-methylthiazol-5-yl)phenyl)ethyl)pyrrolidine-2-carboxamide] | > 75% | < 2.5 nM
8 | – | – | Cc1ncsc1-c1ccc([C@H](C)NC(=O)[C@@H]2C[C@@H](O)CN2C(=O)[C@@H](c2cc(OCCN3C[C@H]4C[C@@H](O[C@H]5C[C@H](Oc6cc(N7C8CCC7CN(c7cc(-c9ccccc9O)nnc7N)C8)ccn6)C5)C[C@H]4C3)no2)C(C)C)cc1 [compound 360, (2S,4R)-1-((2R)-2-(3-(2-((3aR,5R,6aS)-5-((1r,3R)-3-((4-(3-(3-amino-6-(2-hydroxyphenyl)pyridazin-4-yl)-3,8-diazabicyclo[3.2.1]octan-8-yl)pyridin-2-yl)oxy)cyclobutoxy)hexahydrocyclopenta[c]pyrrol-2(1H)-yl)ethoxy)isoxazol-5-yl)-3-methylbutanoyl)-4-hydroxy-N-((S)-1-(4-(4-methylthiazol-5-yl)phenyl)ethyl)pyrrolidine-2-carboxamide] | > 75% | < 2.5 nM
9 | – | – | Cc1ncsc1-c1ccc([C@H](C)NC(=O)C2C[C@@H](O)CN2C(=O)[C@H](c2onc(OCCN3CCC(O[C@H]4C[C@H](Oc5cc(N6C7CCC6CN(c6cc(-c8ccccc8O)nnc6N)C7)ccn5)C4)CC3)c2Cl)C(C)C)cc1 (stereo partly drawn) [compound 361, (2S,4R)-1-((2S)-2-(3-(2-(4-((1r,3S)-3-((4-(3-(3-amino-6-(2-hydroxyphenyl)pyridazin-4-yl)-3,8-diazabicyclo[3.2.1]octan-8-yl)pyridin-2-yl)oxy)cyclobutoxy)piperidin-1-yl)ethoxy)-4-chloroisoxazol-5-yl)-3-methylbutanoyl)-4-hydroxy-N-((S)-1-(4-(4-methylthiazol-5-yl)phenyl)ethyl)pyrrolidine-2-carboxamide] | – | > 30 nM
10 | – | – | Cc1ncsc1-c1ccc([C@H](C)NC(=O)C2C[C@@H](O)CN2C(=O)[C@@H](c2onc(OCCN3CCC(O[C@H]4C[C@H](Oc5cc(N6C7CCC6CN(c6cc(-c8ccccc8O)nnc6N)C7)ccn5)C4)CC3)c2Cl)C(C)C)cc1 (stereo partly drawn) [compound 362, (2S,4R)-1-((2R)-2-(3-(2-(4-((1r,3R)-3-((4-(3-(3-amino-6-(2-hydroxyphenyl)pyridazin-4-yl)-3,8-diazabicyclo[3.2.1]octan-8-yl)pyridin-2-yl)oxy)cyclobutoxy)piperidin-1-yl)ethoxy)-4-chloroisoxazol-5-yl)-3-methylbutanoyl)-4-hydroxy-N-((S)-1-(4-(4-methylthiazol-5-yl)phenyl)ethyl)pyrrolidine-2-carboxamide] | > 75% | < 2.5 nM
11 | – | – | CC(C)[C@H](C(=O)N1C[C@H](O)C[C@H]1C(=O)N[C@@H](C)c1ccc(-c2nncs2)cc1)c1cc(OCCN2CCC(O[C@H]3C[C@H](Oc4cc(N5C6CCC5CN(c5cc(-c7ccccc7O)nnc5N)C6)ccn4)C3)CC2)no1 [compound 363, (2S,4R)-N-((S)-1-(4-(1,3,4-thiadiazol-2-yl)phenyl)ethyl)-1-((2S)-2-(3-(2-(4-((1r,3S)-3-((4-(3-(3-amino-6-(2-hydroxyphenyl)pyridazin-4-yl)-3,8-diazabicyclo[3.2.1]octan-8-yl)pyridin-2-yl)oxy)cyclobutoxy)piperidin-1-yl)ethoxy)isoxazol-5-yl)-3-methylbutanoyl)-4-hydroxypyrrolidine-2-carboxamide] | – | > 30 nM
12 | – | – | CC(C)[C@@H](C(=O)N1C[C@H](O)C[C@H]1C(=O)N[C@@H](C)c1ccc(-c2nncs2)cc1)c1cc(OCCN2CCC(O[C@H]3C[C@H](Oc4cc(N5C6CCC5CN(c5cc(-c7ccccc7O)nnc5N)C6)ccn4)C3)CC2)no1 [compound 364, (2S,4R)-N-((S)-1-(4-(1,3,4-thiadiazol-2-yl)phenyl)ethyl)-1-((2R)-2-(3-(2-(4-((1r,3R)-3-((4-(3-(3-amino-6-(2-hydroxyphenyl)pyridazin-4-yl)-3,8-diazabicyclo[3.2.1]octan-8-yl)pyridin-2-yl)oxy)cyclobutoxy)piperidin-1-yl)ethoxy)isoxazol-5-yl)-3-methylbutanoyl)-4-hydroxypyrrolidine-2-carboxamide] | > 75% | > 30 nM
13 | – | – | Cc1ncn(C)c1-c1ccc([C@H](C)NC(=O)[C@@H]2C[C@@H](O)CN2C(=O)[C@H](c2cc(OCCN3CCC(O[C@H]4C[C@H](Oc5cc(N6C7CCC6CN(c6cc(-c8ccccc8O)nnc6N)C7)ccn5)C4)CC3)no2)C(C)C)cc1 [compound 365, (2S,4R)-1-((2S)-2-(3-(2-(4-((1r,3S)-3-((4-(3-(3-amino-6-(2-hydroxyphenyl)pyridazin-4-yl)-3,8-diazabicyclo[3.2.1]octan-8-yl)pyridin-2-yl)oxy)cyclobutoxy)piperidin-1-yl)ethoxy)isoxazol-5-yl)-3-methylbutanoyl)-N-((S)-1-(4-(1,4-dimethyl-1H-imidazol-5-yl)phenyl)ethyl)-4-hydroxypyrrolidine-2-carboxamide] | – | > 30 nM
